The target of the experiment is Protease (Human immunodeficiency virus 1, UniProt Q9YQ12). Briefly: Inhibition of HIV1 protease.
Sequence of Protease (Q9YQ12 whole entry): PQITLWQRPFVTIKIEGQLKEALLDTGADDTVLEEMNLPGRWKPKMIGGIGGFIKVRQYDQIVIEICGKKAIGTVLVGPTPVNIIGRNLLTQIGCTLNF

As for `CC(=O)N[C@H](C(=O)N[C@H](C(=O)N[C@@H](CC(C)C)[C@@H](O)CC(=O)N[C@@H](C)C(=O)N[C@@H](CC(C)C)[C@@H](O)CC(=O)O)C(C)C)C(C)C` [ACETYLPEPSTATIN], the Ki – broadly, a dissociation constant, usually derived from enzyme kinetics or from competition with a known ligand – was determined as 0.02 nM.

Values taken from ChEMBL document CHEMBL2163293, “Rational approaches to improving selectivity in drug design” (J Med Chem, 2012).
